Reference: patent US12071434B2, “Heterocyclic compound” (Takeda Pharmaceutical Company Limited, priority 2018, dated 2024)

Target: T1, human orexin type 2 receptor (Homo sapiens, UniProt O43614)
T1 construct: expressed in transfected cells
T1 sequence (O43614 1-444): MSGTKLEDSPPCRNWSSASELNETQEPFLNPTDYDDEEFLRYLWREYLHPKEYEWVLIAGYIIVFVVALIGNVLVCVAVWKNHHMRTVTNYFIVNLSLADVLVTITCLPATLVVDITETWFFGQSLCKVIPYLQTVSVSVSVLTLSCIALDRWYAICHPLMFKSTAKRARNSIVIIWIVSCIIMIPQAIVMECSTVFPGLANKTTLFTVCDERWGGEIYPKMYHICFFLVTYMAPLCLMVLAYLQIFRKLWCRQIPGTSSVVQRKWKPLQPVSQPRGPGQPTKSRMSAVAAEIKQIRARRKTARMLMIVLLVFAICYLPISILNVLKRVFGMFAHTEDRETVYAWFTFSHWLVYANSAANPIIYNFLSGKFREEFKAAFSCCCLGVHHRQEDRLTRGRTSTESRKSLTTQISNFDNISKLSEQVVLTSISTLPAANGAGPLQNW
Experiment: Measurement of orexin type 2 receptor agonist activity (calcium fluorescence, Fluo-4 AM, FDSS) in CHO cells forcibly expressing human OX2 receptor
Assay type: cell-based
Conditions: test compound 3 μM, DMSO = 0%, orexin A (human) 10 nM = 100%
In short: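 CHO-dhfr cells stably expressing human OX2 receptor, loaded with Fluo-4 AM plus probenecid for 30 min at 37 °C, then 30 min at room temperature. Calcium fluorescence read for about 2 min 40 s after compound addition. Activity (%) scaled between DMSO (0%) and 10 nM human orexin A (100%).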

`CCc1ccc2n(c1=O)[C@@H](Cc1cccc(C3CC3)c1)[C@@H](NS(C)(=O)=O)CC2` (racemic) [Example 136, rac-N-{(3S,4S)-4-[(3-cyclopropylphenyl)methyl]-7-ethyl-6-oxo-1,3,4,6-tetrahydro-2H-quinolizin-3-yl}methanesulfonamide] was tested, and the “0X2R agonist activity (3 μM, %)” value was 89%.

`Cc1n[nH]c(=O)c2c1CC[C@H](NS(C)(=O)=O)[C@@H]2Cc1cccc(-c2ccccc2)c1` (racemic) [Example 138, rac-N-{(5R,6S)-5-[([1,1′-biphenyl]-3-yl)methyl]-1-methyl-4-oxo-3,4,5,6,7,8-hexahydrophthalazin-6-yl}methanesulfonamide] was tested, and the “0X2R agonist activity (3 μM, %)” value was 44%.

`CC(C)n1cnc2c(c1=O)[C@@H](Cc1cccc(-c3ccccc3)c1)[C@@H](NS(=O)(=O)C1(F)CC1)CC2` (racemic) [Example 146, rac-N-[(5R,6S)-5-[([1,1′-biphenyl]-3-yl)methyl]-4-oxo-3-(propan-2-yl)-3,4,5,6,7,8-hexahydroquinazolin-6-yl]-1-fluorocyclopropane-1-sulfonamide] was tested, and the “0X2R agonist activity (3 μM, %)” value was 96%.

In the case of `[2H]C([2H])([2H])C([2H])([2H])n1ccc2c(c1=O)C(Cc1cccc(-c3cccc(F)c3F)c1)C(NS(C)(=O)=O)CC2` (racemic) [Example 147, rac-N-{(7S,8R)-8-[(2′,3′-difluoro[1,1′-biphenyl]-3-yl)methyl]-2-(~2~H_5_)ethyl-1-oxo-1,2,5,6,7,8-hexahydroisoquinolin-7-yl}methanesulfonamide], the “0X2R agonist activity (3 μM, %)” value is reported as 100%.

For `CC(C)n1ccc2c(c1=O)[C@@H](Cc1cccc(-c3ccccc3)n1)[C@@H](NS(C)(=O)=O)CC2` (racemic) [Example 148, rac-N-[(7S,8R)-1-oxo-8-[(6-phenylpyridin-2-yl)methyl]-2-(propan-2-yl)-1,2,5,6,7,8-hexahydroisoquinolin-7-yl]methanesulfonamide], the “0X2R agonist activity (3 μM, %)” value was 104%.

In the case of `CC(C)c1nn(C)c2c(c1=O)[C@@H](Cc1cccc(-c3ccccc3)c1)[C@@H](NS(C)(=O)=O)CC2` (racemic) [Example 158, rac-N-[(5R,6S)-5-[([1,1′-biphenyl]-3-yl)methyl]-1-methyl-4-oxo-3-(propan-2-yl)-1,4,5,6,7,8-hexahydrocinnolin-6-yl]methanesulfonamide], the “0X2R agonist activity (3 μM, %)” value is reported as 101%.

In the case of `CC(C)N1CNC2=C(C1=O)[C@@H](Cc1cccc(-c3ccccc3)c1)[C@@H](NS(C)(=O)=O)CC2(F)F` (racemic) [Example 162, rac-N-[(5R,6S)-5-[([1,1′-biphenyl]-3-yl)methyl]-8,8-difluoro-4-oxo-3-(propan-2-yl)-1,2,3,4,5,6,7,8-octahydroquinazolin-6-yl]methanesulfonamide], the “0X2R agonist activity (3 μM, %)” value is reported as 101%.

With `CCn1ccc2c(c1=O)[C@@H](Cc1cccc(-c3ccccc3)c1F)[C@@H](NS(C)(=O)=O)CC2=O` (racemic) [Example 163, rac-N-{(7S,8R)-2-ethyl-8-[(2-fluoro[1,1′-biphenyl]-3-yl)methyl]-1,5-dioxo-1,2,5,6,7,8-hexahydroisoquinolin-7-yl}methanesulfonamide] the “0X2R agonist activity (3 μM, %)” value was 94%.

`CC1OCC2CCC(NS(C)(=O)=O)C(Cc3cccc(-c4cccc(F)c4)c3)N2C1=O` (racemic) [Example 165, rac-N-{(3R,6S,7S,9aR)-6-[(3′-fluoro[1,1′-biphenyl]-3-yl)methyl-3-methyl-4-oxooctahydropyrido[2,1-c][1,4]oxazin-7-yl}methanesulfonamide] was tested, and the “0X2R agonist activity (3 μM, %)” value was 97%.

For `CCn1ccc2c(c1=O)[C@@H](Cc1cccc(-c3ccccc3)c1F)[C@@H](NS(C)(=O)=O)C[C@@H]2F` (racemic) [Example 167, rac-N-{(5S,7S,8R)-2-ethyl-5-fluoro-8-[(2-fluoro[1,1′-biphenyl]-3-yl)methyl]-1-oxo-1,2,5,6,7,8-hexahydroisoquinolin-7-yl}methanesulfonamide], the “0X2R agonist activity (3 μM, %)” value was 93%.

With `CC(C)n1cnc2c(c1=O)C(Cc1cccc(-c3ccccc3)c1)C(NS(C)(=O)=O)C(F)C2` (racemic) [Example 173, rac-N-[(5R,6R)-5-[([1,1′-biphenyl]-3-yl)methyl]-7-fluoro-4-oxo-3-(propan-2-yl)-3,4,5,6,7,8-hexahydroquinazolin-6-yl]methanesulfonamide] the “0X2R agonist activity (3 μM, %)” value was 91%.

In the case of `CC(C)n1cnc2c(c1=O)C(Cc1cccc(-c3ccccc3)c1)C(NS(C)(=O)=O)C(F)C2=O` (racemic) [Example 179, N-[(5RS,6RS)-5-[([1,1′-biphenyl]-3-yl)methyl]-7-fluoro-4,8-dioxo-3-(propan-2-yl)-3,4,5,6,7,8-hexahydroquinazolin-6-yl]methanesulfonamide], the “0X2R agonist activity (3 μM, %)” value is reported as 100%.

`CC(C)=Cc1cccc(C[C@@H]2c3c(ncn(C(C)C)c3=O)CC[C@@H]2NS(=O)(=O)C2(F)CC2)c1` (racemic) [Example 197, rac-1-fluoro-N-[(5R,6S)-5-{[3-(2-methylprop-1-en-1-yl)phenyl]methyl}-4-oxo-3-(propan-2-yl)-3,4,5,6,7,8-hexahydroquinazolin-6-yl]cyclopropane-1-sulfonamide] was tested, and the “0X2R agonist activity (3 μM, %)” value was 92%.

In the case of `CC(C)n1cnc2c(c1=O)[C@@H](Cc1cccc(-c3ccccc3)c1F)[C@@H](NS(C)(=O)=O)[C@H](F)[C@H]2F` (racemic) [Example 198, rac-N-[(5R,6R,7S,8S)-7,8-difluoro-5-[(2-fluoro[1,1′-biphenyl]-3-yl)methyl]-4-oxo-3-(propan-2-yl)-3,4,5,6,7,8-hexahydroquinazolin-6-yl]methanesulfonamide], the “0X2R agonist activity (3 μM, %)” value is reported as 85%.

`Cn1cc2n(c1=O)[C@@H](Cc1cccc(-c3cc(F)cc(F)c3)c1)[C@@H](NS(C)(=O)=O)CC2` (racemic) [Example 201, rac-N-{(5S,6S)-5-[(3′,5′-difluoro[1,1′-biphenyl]-3-yl)methyl]-2-methyl-3-oxo-2,3,5,6,7,8-hexahydroimidazo[1,5-a]pyridin-6-yl}methanesulfonamide] was tested, and the “0X2R agonist activity (3 μM, %)” value was 91%.

With `CC(C)n1cc2n(c1=O)[C@@H](Cc1cccc(-c3ccccc3)c1)[C@@H](NS(C)(=O)=O)CC2` (racemic) [Example 203, rac-N-[(5S,6S)-5-[([1,1′-biphenyl]-3-yl)methyl]-3-oxo-2-(propan-2-yl)-2,3,5,6,7,8-hexahydroimidazo[1,5-a]pyridin-6-yl]methanesulfonamide] the “0X2R agonist activity (3 μM, %)” value was 86%.

For `CCn1cc2n(c1=O)[C@@H](Cc1cccc(-c3ccccc3)c1F)[C@@H](NS(C)(=O)=O)CC2` (racemic) [Example 204, rac-N-{(5S,6S)-2-ethyl-5-[(2-fluoro[1,1′-biphenyl]-3-yl)methyl]-3-oxo-2,3,5,6,7,8-hexahydroimidazo[1,5-a]pyridin-6-yl}methanesulfonamide], the “0X2R agonist activity (3 μM, %)” value was 91%.

`CC(C)c1nn(C)c2c(c1=O)[C@@H](Cc1csc(-c3ccccc3)n1)[C@@H](NS(C)(=O)=O)C[C@H]2F` (racemic) [Example 207, rac-N-[(5R,6S,8R)-8-fluoro-1-methyl-4-oxo-5-[(2-phenyl-1,3-thiazol-4-yl)methyl]-3-(propan-2-yl)-1,4,5,6,7,8-hexahydrocinnolin-6-yl]methanesulfonamide] was tested, and the “0X2R agonist activity (3 μM, %)” value was 93%.

`Cn1cc2n(c1=O)[C@@H](Cc1cccc(-c3cc(F)cc(F)c3)c1F)[C@@H](NS(C)(=O)=O)CC2` (racemic) [Example 209, rac-N-{(5S,6S)-2-methyl-3-oxo-5-[(2,3′,5′-trifluoro[1,1′-biphenyl]-3-yl)methyl]-2,3,5,6,7,8-hexahydroimidazo[1,5-a]pyridin-6-yl}methanesulfonamide] was tested, and the “0X2R agonist activity (3 μM, %)” value was 74%.

With `CCc1c(C)n(C)c2c(c1=O)[C@@H](Cc1cccc(-c3ccccc3)c1)[C@@H](NS(C)(=O)=O)CC2` (racemic) [Example 211, rac-N-{(5R,6S)-5-[([1,1′-biphenyl]-3-yl)methyl]-3-ethyl-1,2-dimethyl-4-oxo-1,4,5,6,7,8-hexahydroquinolin-6-yl}methanesulfonamide] the “0X2R agonist activity (3 μM, %)” value was 82%.

For `Cc1ccc2n(c1=O)C(Cc1ccc(-c3ccccc3)cc1)C(NS(C)(=O)=O)CC2` (racemic) [Example 214, rac-N-{(3S,4S)-4-[([1,1′-biphenyl]-4-yl)methyl]-7-methyl-6-oxo-1,3,4,6-tetrahydro-2H-quinolizin-yl}methanesulfonamide], the “0X2R agonist activity (3 μM, %)” value was 52%.

With `CCc1ccc(C[C@H]2[C@@H](NS(C)(=O)=O)CCc3ccc(C)c(=O)n32)cc1` (racemic) [Example 216, rac-N-{(3S,4S)-4-[(4-ethylphenyl)methyl]-7-methyl-6-oxo-1,3,4,6-tetrahydro-2H-quinolizin-3-yl}methanesulfonamide] the “0X2R agonist activity (3 μM, %)” value was 76%.

With `Cc1ccc2n(c1=O)[C@@H](Cc1cccc(-c3ccccc3)c1)[C@@H](NS(C)(=O)=O)CC2` (relative stereo) [Example 10, rel-N-{(3S,4S)-4-[([1,1′-biphenyl]-3-yl)methyl]-7-methyl-6-oxo-1,3,4,6-tetrahydro-2H-quinolizin-3-yl}methanesulfonamide] the “0X2R agonist activity (3 μM, %)” value was 101%.
